Literature values as cited in patent publication US7074430B2, “Controlled release tramadol tramadol formulation” (Euro-Celtique S.A., priority 1994, dated 2006).

Settings: value taken for the deconvolution technique

COc1cccc([C@@]2(O)CCCC[C@H]2CN(C)C)c1 (racemic) [tramadol, (±)-trans-2-[(dimethylamino)methyl]-1-(3-methoxyphenyl) cyclohexanol]
elimination half life: 7.8 h
